The values that follow come from US9730874B2, “Nitrone compounds and their use in personal care” (Dow Global Technologies LLC, priority 2014, dated 2017).

The nature of this assay: Oxygen Radical Absorbance Capacity (ORAC) antioxidant potential. Type of assay: biochemical. The settings on record: calculated from ORAC values (AUC minus blank) vs Trolox; test concentration 100 micromolar. The method, then:
Antioxidant potential is evaluated using the Oxygen Radical Absorbance Capacity (ORAC) protocol. ORAC is a chemical in-vitro method based on the hydrogen atom transfer (HAT) mechanism (see N. Re et al., Free Radical Biology & Medicine, 26 (9/10), 1231 (1997)). ORAC measures antioxidant inhibition of peroxyl radical induced oxidations and thus reflects classical radical chain breaking antioxidant activity by H atom transfer. In this assay, the peroxyl radical reacts with a fluorescent probe to form a non-fluorescent product. This is quantitated using a fluorescence measurement. Antioxidant capacity is determined by decreased rate and amount of product formed over time. This assay depends upon the free radical damage to the fluorescent probe resulting in the change in its fluorescence intensity. The change of fluorescence intensity is an indicator of the degree of free radical damage. In the presence of an antioxidant, the inhibition of free radical damage is reflected in higher fluorescence intensity and can be measured as antioxidant capacity against the free radicals. The uniqueness of ORAC assay is that the reaction is driven to completion. This allows calculation of the area under the curve (AUC) and gives an absolute quantitation of antioxidancy as opposed to relative measurements in many other assays.
As noted, the longer it takes to observe a decrease in fluorescence, the higher the antioxidant (AO) potential. From the AUC for a given antioxidant, the AUC for blank is subtracted to give its ORAC value. The concentration of AO needed to give the same AUC values as Trolox is calculated and used to represent the Trolox equivalent AO Capacity (TEAC). Trolox is ((±)-6-Hydroxy-2,5,7,8-tetramethylchromane-2-carboxylic acid, CAS #53188-07-1), and is used as an internal control.
The ORAC test is conducted in the stilbene-pendant nitrone compounds of Table 1 above (inventive compounds) as well as to Vitamin C, Vitamin E, and the following comparative compounds:
The inventive stilbene-pendant nitrones in the ORAC test solutions were at a concentration of 100 micromolar, while the concentrations of Trolox, Vitamin C, Vitamin E, BHT, PBN+BHT, and VAL-IPHA were at 100 micromolar. The TEAC values calculated from the ORAC values are listed the Table 3.
Turning to `CC(C)(C)/[N+]([O-])=C/c1ccccc1` [PBN, 2-Phenyl-N-tert-butylnitrone, reference compound], the “TEAC (Trolox equivalent AO Capacity)” value is “not very high”.
The value for `COc1cc(/C=C/c2ccc(O)c(/C=[N+](/[O-])Cc3ccccc3)c2)ccc1O` [Sald-BzHA, N-(2-Hydroxy-5-(4-hydroxy-3-methoxystyryl)benzylidene)-1-phenylmethanamine oxide] was 8.33.
The value for `COc1cc(/C=C/c2ccc(O)c(/C=[N+](/[O-])Cc3ccc(O)cc3O)c2)ccc1O` [Sald-24DHBzHA, N-(2-Hydroxy-5-(4-hydroxy-3-methoxystyryl)benzylidene)-1-(2,4-dihydroxyphenyl)methanamine oxide] was 7.31; that for Vitamin E [reference compound] was 0.13; that for `COc1cc(/C=C/c2ccc(O)c(/C=[N+](/[O-])Cc3ccc(O)cc3)c2)ccc1O` [Sald-pHBzHA, N-(2-Hydroxy-5-(4-hydroxy-3-methoxystyryl)benzylidene)-1-hydroxyphenylmethanamine oxide] was 9.02.
Regarding `COc1cc(/C=C/c2ccc(O)c(/C=[N+](/[O-])Cc3ccc(O)c(O)c3)c2)ccc1O` [Sald-34-DHBzHA, N-(2-Hydroxy-5-(4-hydroxy-3-methoxystyryl)benzylidene)-1-(3,4-dihydroxyphenyl)methanamine oxide], the “TEAC (Trolox equivalent AO Capacity)” value is recorded as 7.16.
Next, `O=C1O[C@H]([C@@H](O)CO)C(O)=C1O` [Vitamin C, reference compound]: 0.76.
